Test results from article PMC13089524, “Development of SYK NanoBRET cellular target engagement assays for gain–of–function variants” (Frontiers in chemical biology, 2024).
Entries after “also recorded” stand apart in the source; their conditions may differ.

Experiments:
[1] = system: pSYK(Y525/526) in SW480 cells stably expressing SYK(S550Y); assay: SYK phosphorylation western blot in SW480 cells stably expressing SYK(S550Y); type: cell-based
Protocol: SW480 cells stably expressing S550Y variant were maintained as previously described ([Wang et al., 2021]). For SYK S550Y inhibition, cells were seeded in 12-well plate, at 10^6 cells/well. The next day, medium was replaced and MRL-SYK inhibitor was added at 10 μM and 100 nM for 20 h. Protein lysates were prepared and analyzed on Western blot as previously described ([Wang et al., 2021]).

[2] = system: GPCR scan and panel of 113 enzymes and receptors; conditions: at 10 μM; ref Sgc et al., 2024; cited from earlier work
[3] = system: kinases of the KINOMEscan panel; conditions: ref Sgc et al., 2024; cited from earlier work
[4] = target: T1, SYK(M450I)-NL (Homo sapiens, UniProt P43405, M450I); assay: NanoBRET assay in digitonin permeabilized HEK293 cells, SYK(M450I)-NL; type: cell-based; conditions: fixed concentration of tracer 8, average ± SEM, read-out: IC50, SYK(variant)-NL M450I
T1 construct: host or cells: HEK293
Protocol: (§1) We performed NanoBRET tracer optimization to determine if the SYK tracers could effectively generate a BRET signal. […] To enable the NanoBRET assay using tracer 8 with cells permeabilized by digitonin, a tracer dose–response study was performed for each SYK(GoF) variant and SYK(WT) (Figure 3A), followed by tracer titration experiments (Figure 3B; Supplementary Figure S3). […] Initially, we determined the EC50 of tracer 8 for each SYK(GoF) variant and SYK(WT). […] Plates were incubated for 25 min at room temperature if digitonin was added or for 2 h at 37°C in 5% CO2 for the intact cell NanoBRET assay. […] For intact live cells in a 96-well plate, the 3X stock solution was prepared with 30 μL of NanoBRET NanoGlo substrate, 10 μL of extracellular NanoLuc inhibitor, and 4,960 μL of Opti-MEM without phenol red. […] Raw milliBRET units (mBU) were read on a GloMax Discover system (Promega) with a donor emission wavelength of 450 nm and an acceptor emission wavelength of 600 nm. mBU were calculated by dividing the acceptor emission values (600 nm) by the donor emission values (450 nm). For NanoBRET studies with SYK, background corrected mBU were calculated by subtracting the no tracer wells from the tracer-containing wells and multiplying by 1,000. […]

[5] = target: T2, SYK(S550Y)-NL (Homo sapiens, UniProt P43405, S550Y); assay: NanoBRET cellular target engagement assay in intact live HEK293 cells, SYK(S550Y)-NL; type: cell-based; conditions: for IC50: tracer titration
T2 construct: host or cells: HEK293
Protocol: (§2) NL orientations used in the respective assays are indicated. […] Plates were incubated for 25 min at room temperature if digitonin was added or for 2 h at 37°C in 5% CO2 for the intact cell NanoBRET assay. […] For intact live cells in a 96-well plate, the 3X stock solution was prepared with 30 μL of NanoBRET NanoGlo substrate, 10 μL of extracellular NanoLuc inhibitor, and 4,960 μL of Opti-MEM without phenol red. For digitonin permeabilized live cells in a 96-well plate, the 3X stock solution was prepared with 30 μL of NanoBRET NanoGlo substrate and 4,970 μL of Opti-MEM without phenol red. Raw milliBRET units (mBU) were read on a GloMax Discover system (Promega) with a donor emission wavelength of 450 nm and an acceptor emission wavelength of 600 nm. mBU were calculated by dividing the acceptor emission values (600 nm) by the donor emission values (450 nm). For NanoBRET studies with SYK, background corrected mBU were calculated by subtracting the no tracer wells from the tracer-containing wells and multiplying by 1,000.
(§3) MRL-SYKi was used to compete away the NanoBRET signal produced with tracer 8. […] Tracer 8 was prepared in DMSO and DMEM without phenol red in 11-point dose-response format with 3 μM as the top concentration, with a final assay plate concentration of 1% DMSO. 10X stock solutions of MRL-SYKi were prepared from 10 mM DMSO stock solution with room temperature Opti-MEM without phenol red, for final assay plate concentrations of 10 μM. 10 μL of 8 (10X) was added to each well, with the exception of the no tracer control wells, and 10 μL of 10X solutions of MRL-SYKi was added to wells for tracer competition. One biological replicate was plotted in GraphPad Prism with [inhibitor] vs response (three parameters).
(§4) MRL-SYKi was tested in 11-point dose–response format with a top concentration of 10 μM. […] The final assay plate concentrations included 1% DMSO. 5 μL of 8 (20X) was added to each well, except the no tracer control wells, and 10 μL of 10X threefold diluted solutions of MRL-SYKi was added to wells. Two biological replicates were plotted in GraphPad Prism with log[inhibitor] vs response (three parameters) with the error bars indicating standard deviation.
(§5) Compounds were tested in 11-point dose–response format with a top concentration of 10 μM. Data are reported as IC50 ± standard error mean (SEM). One biological replicate was plotted in GraphPad Prism with log[inhibitor] vs response (three parameters), the three IC50’s were averaged and the SEM was calculated.

[6] = target: T3, SYK(P342T)-NL (Homo sapiens, UniProt P43405, P342T); assay: NanoBRET cellular target engagement assay in intact live HEK293 cells, SYK(P342T)-NL; type: cell-based
T3 construct: host or cells: HEK293
Protocol: as §2, §3, §4, §5

[7] = target: T4, SYK(P342T) (Homo sapiens, UniProt P43405, P342T); assay: PhosphoSens SOX peptide kinase activity assay, SYK(P342T); type: biochemical; conditions: purified protein, 1 mM ATP
T4 construct: The full-length SYK GoF variants SYK(S550F) and SYK(P342T) along with SYK(WT) were purified from insect cells (Sf9); 6His (N, cleaved yes); GST (N, cleaved yes); made in house; host or cells: Sf9 insect cells (baculovirus, pFastbac1)

[8] = target: T5, SYK(WT)-NL (Homo sapiens, UniProt P43405); assay: NanoBRET assay in digitonin permeabilized HEK293 cells, SYK(WT)-NL; type: cell-based; conditions: fixed concentration of tracer 8, average ± SEM, read-out: IC50, SYK(variant)-NL WT
T5 construct: SYK tracers enable BRET with full-length SYK(WT) after digitonin permeabilization; host or cells: HEK293
Protocol: We performed NanoBRET tracer optimization to determine if the SYK tracers could effectively generate a BRET signal. […] To enable the NanoBRET assay using tracer 8 with cells permeabilized by digitonin, a tracer dose–response study was performed for each SYK(GoF) variant and SYK(WT) (Figure 3A), followed by tracer titration experiments (Figure 3B; Supplementary Figure S3). […] Initially, we determined the EC50 of tracer 8 for each SYK(GoF) variant and SYK(WT). […] Plates were incubated for 25 min at room temperature if digitonin was added or for 2 h at 37°C in 5% CO2 for the intact cell NanoBRET assay. […] For intact live cells in a 96-well plate, the 3X stock solution was prepared with 30 μL of NanoBRET NanoGlo substrate, 10 μL of extracellular NanoLuc inhibitor, and 4,960 μL of Opti-MEM without phenol red. For digitonin permeabilized live cells in a 96-well plate, the 3X stock solution was prepared with 30 μL of NanoBRET NanoGlo substrate and 4,970 μL of Opti-MEM without phenol red. Raw milliBRET units (mBU) were read on a GloMax Discover system (Promega) with a donor emission wavelength of 450 nm and an acceptor emission wavelength of 600 nm. mBU were calculated by dividing the acceptor emission values (600 nm) by the donor emission values (450 nm). For NanoBRET studies with SYK, background corrected mBU were calculated by subtracting the no tracer wells from the tracer-containing wells and multiplying by 1,000.
HEK293 cells were transfected with constructs of SYK(WT) or SYK(KD) tagged with NL on the C- or N-terminus and SYK GoF variants tagged with NL on the C-terminus. Tracer 8 (20X) was prepared from a 400 μM stock solution in DMSO with tracer dilution buffer (Promega, #N291B) and 20% DMSO, with a final assay plate concentration of 1% DMSO. 5 μL of 8 (20X) was added to each well, with exception of the no tracer control wells, with final plate concentrations of 0.5, 1, and 2 μM. 10 μL of digitonin (Fisher, 10X, 500 μg/mL) was added to specific wells to permeabilize the cells. The 10X digitonin stock was prepared by diluting a 40X DMSO solution of digitonin with room temperature Opti-MEM without phenol red, for a final assay plate concentration of 1% DMSO. SYK inhibitor stock solutions of MRL-SYKi (10X) were prepared from 10 mM DMSO stock solutions with room temperature Opti-MEM without phenol red, for final assay plate concentrations of 10 μM. Plates were incubated for 25 min at room temperature if digitonin was added or for 2 h at 37°C in 5% CO2 for the intact cell NanoBRET assay. Two technical replicates were plotted in a bar chart with the standard deviation represented as error bars on Graphpad Prism.

[9] = target: T6, SYK(S550F) (Homo sapiens, UniProt P43405, S550F); assay: PhosphoSens SOX peptide kinase activity assay, SYK(S550F); type: biochemical; conditions: purified protein, 1 mM ATP
T6 construct: The full-length SYK GoF variants SYK(S550F) and SYK(P342T) along with SYK(WT) were purified from insect cells (Sf9); 6His (N, cleaved yes); GST (N, cleaved yes); made in house; host or cells: Sf9 insect cells (baculovirus, pFastbac1)

[10] = ref Altman et al., 2011; cited from earlier work
[11] = target: T2, SYK(S550Y)-NL; assay: NanoBRET assay in digitonin permeabilized HEK293 cells, SYK(S550Y)-NL; type: cell-based; conditions: fixed concentration of tracer 8, average ± SEM, read-out: IC50, SYK(variant)-NL S550Y
Protocol: as §1

[12] = target: T7, SYK(S550F)-NL (Homo sapiens, UniProt P43405, S550F); assay: NanoBRET cellular target engagement assay in intact live HEK293 cells, SYK(S550F)-NL; type: cell-based
T7 construct: host or cells: HEK293
Protocol: as §2, §3, §4, §5

[13] = target: T8, SYK (Homo sapiens, UniProt P43405); assay: Eurofins DiscoverX SYK enzymatic radiometric assay; type: biochemical; conditions: Km value for ATP, 9-pt dose-response
T8 construct: purchased Eurofins DiscoverX (contract assay service)
Excerpt: Eurofins kinase enzymatic radiometric assays were executed at the Km value for ATP in dose–response (9-pt curve) format for SYK, included in Table 1 as enzymatic IC50 values.

[14] = system: SRC, NTRK1, NTRK3, FGR, FYN, FER, and JAK2; conditions: ref Sgc et al., 2024; cited from earlier work
[15] = target: T7, SYK(S550F)-NL; assay: NanoBRET assay in digitonin permeabilized HEK293 cells, SYK(S550F)-NL; type: cell-based; conditions: fixed concentration of tracer 8, average ± SEM, read-out: IC50, SYK(variant)-NL S550F
Protocol: as §1

[16] = target: T3, SYK(P342T)-NL; assay: NanoBRET assay in digitonin permeabilized HEK293 cells, SYK(P342T)-NL; type: cell-based; conditions: fixed concentration of tracer 8, average ± SEM, read-out: IC50, SYK(variant)-NL P342T
Protocol: as §1

[17] = target: T9, SYK(A353T)-NL (Homo sapiens, UniProt P43405, A353T); assay: NanoBRET assay in digitonin permeabilized HEK293 cells, SYK(A353T)-NL; type: cell-based; conditions: fixed concentration of tracer 8, average ± SEM, read-out: IC50, SYK(variant)-NL A353T
T9 construct: host or cells: HEK293
Protocol: as §1

## Cc1cc(Nc2nccc(C)n2)cc(-c2cnc([C@@]3(O)CC[C@H](C(=O)O)C(C)(C)C3)s2)c1 [MRL-SYKi]
[1]; 100 nM for 20 h
  pSYK(Y525/526) levels via Western blot compared to untreated cells: decrease in pSYK(Y525/526) levels; also recorded: decreased pSYK(Y525/526) levels
[1]; 10 μM for 20 h
  pSYK(Y525/526) levels via Western blot compared to untreated cells: decrease in pSYK(Y525/526) levels
[2]
  off-target inhibition: no off-target inhibition
[3]
  selectivity versus the protein kinase family in the KINOMEscan panel: greater than 30 fold
[4]
  IC50: 29 ± 6 nM
[5]; linearized Cheng-Prusoff analysis, y-intercept, tracer 8, single experiment, read-out: KD, app SYK(S550Y)
  Kd: 27 nM
[5]; [Tracer] 7.8 nM, read-out: IC50, SYK(S550Y)-NL + 8 + MRL-SYKi
  IC50: 27 nM
[5]; [Tracer] 15.6 nM, read-out: IC50, SYK(S550Y)-NL + 8 + MRL-SYKi
  IC50: 27 nM
[5]; [Tracer] 31.2 nM, read-out: IC50, SYK(S550Y)-NL + 8 + MRL-SYKi
  IC50: 32 nM
[5]; [Tracer] 62.5 nM, read-out: IC50, SYK(S550Y)-NL + 8 + MRL-SYKi
  IC50: 42 nM
[5]; [Tracer] 125 nM, read-out: IC50, SYK(S550Y)-NL + 7 + MRL-SYKi
  IC50: 41 nM
[5]; [Tracer] 125 nM, read-out: IC50, SYK(S550Y)-NL + 8 + MRL-SYKi
  IC50: 74 nM
[5]; [Tracer] 250 nM, read-out: IC50, SYK(S550Y)-NL + 7 + MRL-SYKi
  IC50: 54 nM
[5]; [Tracer] 500 nM, read-out: IC50, SYK(S550Y)-NL + 7 + MRL-SYKi
  IC50: 98 nM
[5]; [Tracer] 1000 nM, read-out: IC50, SYK(S550Y)-NL + 7 + MRL-SYKi
  IC50: 220 nM
[6]; intact HEK293 cells, 125 nM tracer 8, average of triplicate ± SEM, read-out: SYK(P342T) IC50
  IC50: 410 ± 95 nM
[6]; linearized Cheng-Prusoff analysis, y-intercept, tracer 8, single experiment, read-out: KD, app SYK(P342T)
  Kd: 179 nM
[6]; tracer titration, [Tracer] 15.6 nM, read-out: IC50, SYK(P342T)-NL + 8 + MRL-SYKi
  IC50: 134 nM
[6]; tracer titration, [Tracer] 31.2 nM, read-out: IC50, SYK(P342T)-NL + 8 + MRL-SYKi
  IC50: 194 nM
[6]; tracer titration, [Tracer] 62.5 nM, read-out: IC50, SYK(P342T)-NL + 8 + MRL-SYKi
  IC50: 371 nM
[6]; tracer titration, [Tracer] 125 nM, read-out: IC50, SYK(P342T)-NL + 8 + MRL-SYKi
  IC50: 365 nM
[6]; tracer titration, [Tracer] 250 nM, read-out: IC50, SYK(P342T)-NL + 8 + MRL-SYKi
  IC50: 498 nM
[7]
  IC50: 95 nM
[8]
  IC50: 10 nM
[9]
  IC50: 63 nM
[10]
  cellular activity: < 100 nM
[11]
  IC50: 2.1 ± 1 nM
[12]; intact HEK293 cells, 125 nM tracer 8, average of triplicate ± SEM, read-out: SYK(S550F) IC50
  IC50: 250 ± 48 nM
[12]; linearized Cheng-Prusoff analysis, y-intercept, tracer 8, single experiment, read-out: KD, app SYK(S550F)
  Kd: 46 nM
[12]; tracer titration, [Tracer] 7.8 nM, read-out: IC50, SYK(S550F)-NL + 8 + MRL-SYKi
  IC50: 29 nM
[12]; tracer titration, [Tracer] 15.6 nM, read-out: IC50, SYK(S550F)-NL + 8 + MRL-SYKi
  IC50: 44 nM
[12]; tracer titration, [Tracer] 31.2 nM, read-out: IC50, SYK(S550F)-NL + 8 + MRL-SYKi
  IC50: 77 nM
[12]; tracer titration, [Tracer] 62.5 nM, read-out: IC50, SYK(S550F)-NL + 8 + MRL-SYKi
  IC50: 98 nM
[12]; tracer titration, [Tracer] 125 nM, read-out: IC50, SYK(S550F)-NL + 8 + MRL-SYKi
  IC50: 157 nM
[12]; tracer titration, [Tracer] 250 nM, read-out: IC50, SYK(S550F)-NL + 8 + MRL-SYKi
  IC50: 190 nM
[13]
  IC50: 30 nM
[14]
  off-target kinases less potent than SYK: ≥ 111 fold
[15]
  IC50: 14 ± 5 nM
[16]
  IC50: 4.6 ± 2.6 nM
[17]
  IC50: 10 ± 5 nM
